The record followed here is patent US5684026A, “Aminocyclopentane derivative” (priority 1994, dated 1997).

Some results are limits rather than exact numbers.

For orientation: Ki means the dissociation constant of the complex between target and ligand, obtained from inhibition or displacement. A word on the IC50: it is the concentration needed to halve the response being measured. Higher therefore signals weaker potency.

Assay type in all cases: biochemical
For assay [1], the target named is T1, α-glucosidase I (Baker's yeast) (Saccharomyces cerevisiae, UniProt P53008).
T1 construct: made in house; host or cells: Baker's yeast (native enzyme, prepared by the cited method)
T1 sequence (P53008 25-833 limits assumed): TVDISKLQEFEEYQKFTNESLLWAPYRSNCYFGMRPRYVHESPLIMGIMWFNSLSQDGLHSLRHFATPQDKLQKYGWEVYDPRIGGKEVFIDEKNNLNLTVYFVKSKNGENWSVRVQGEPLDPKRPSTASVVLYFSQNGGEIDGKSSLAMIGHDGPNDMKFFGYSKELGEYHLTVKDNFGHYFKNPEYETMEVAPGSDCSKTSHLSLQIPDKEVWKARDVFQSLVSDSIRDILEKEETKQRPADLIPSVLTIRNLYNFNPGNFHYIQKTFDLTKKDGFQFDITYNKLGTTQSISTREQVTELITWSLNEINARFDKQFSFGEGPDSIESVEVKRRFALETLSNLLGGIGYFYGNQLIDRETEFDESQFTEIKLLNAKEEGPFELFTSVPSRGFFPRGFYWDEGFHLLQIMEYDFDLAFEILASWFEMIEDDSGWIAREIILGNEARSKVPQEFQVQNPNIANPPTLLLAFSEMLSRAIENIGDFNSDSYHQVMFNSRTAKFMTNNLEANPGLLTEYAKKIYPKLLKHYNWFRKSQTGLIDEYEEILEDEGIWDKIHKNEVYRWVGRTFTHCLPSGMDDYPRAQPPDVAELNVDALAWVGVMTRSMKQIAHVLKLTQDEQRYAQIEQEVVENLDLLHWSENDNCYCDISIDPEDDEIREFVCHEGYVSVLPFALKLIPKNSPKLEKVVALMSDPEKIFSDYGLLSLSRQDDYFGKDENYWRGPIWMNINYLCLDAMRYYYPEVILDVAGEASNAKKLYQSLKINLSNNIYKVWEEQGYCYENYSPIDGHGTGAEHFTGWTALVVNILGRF
Put plainly: Inhibitory activity on α-glucosidase I (Ki). The note with it: α-glucosidase I, substrate 0.25-4.0 mM, 37° C., 1 hour; read-out: Ki. How it is done: The α-glucosidase I (Baker's yeast) and its substrate (α-D-Glcl→2α-D-Glcl→3α-D-Glc-O(CH2)6 COOCH3) employed herein were prepared in accordance with the method of I. Neverova et al., Anal. Biochem., 222, 190-196 (1994).
The following measurements were performed by the methods described in this literature.
Namely, 25 μl of a buffer solution containing α-glucosidase I was added to a microtube containing the above-mentioned sample and the substrate (α-D-Glcl→2α-D-Glcl→3α-D-Glc-O(CH2)6 COOCH3). After incubating at 37° C. for 1 hour, a 1.25M tris hydrochloride buffer solution (pH 7.6, 25 μl) was added to thereby cease .the reaction. Then the reaction mixture was transferred onto a microplate followed by the addition of 250 μl of a reaction buffer solution [developing solution; 1M tris hydrochloride buffer solution (pH 7.2) containing glucose oxidase (5 units/ml, manufactured by Sigma), horseradish peroxidase (1 purpurogallin units, manufactured by Sigma) and o-dianisidine dihydrochloride (40 μg/ml)]. Then the mixture was incubated at 37° C. for 30 minutes or until an increase in the absorbance attained a plateau. Then the absorbance (A450-650) of the o-dianisidine formed and oxidized by this enzyme reaction was measured. As a blank, the above reaction was repeated but adding neither the above-mentioned sample nor substrate and the absorbance was measured. Also, the above-mentioned reaction buffer solution was added to D-glucose of a known concentration and the resulting mixture was incubated followed by the measurement of the absorbance to thereby examine a relationship between D-glucose concentration and absorbance. Each measurement was effected in two wells at the same time.
Based on the above-mentioned relationship between D-glucose concentration and absorbance, the amount of glucose liberated from the substrate due to the enzyme reaction of α-glucosidase I in the presence of the sample was determined. From the result thus obtained, Km was determined and then Ki was determined from the sample amount and the Km value.

The target of assay [2] is T2, α-Glucosidase (Baker's yeast, EC 3.2.1.20) (Saccharomyces cerevisiae, UniProt P53341).
T2 construct: purchased Sigma; host or cells: Baker's yeast
The assay is described as follows: α-Glucosidase enzyme inhibition assay (p-nitrophenyl α-D-glucopyranoside). The note with it: compared with deoxynojirimycin; summary of Tables 1 and 2. How it is done: (§1) By using a 96-well microplate, the absorbance (at 405 nm) of liberated p- or o-nitrophenol was measured with a microplate reader (MPR-4Ai, manufactured by Tosoh Corporation).
(§2) Incubation was carried out at 37° C. by using a natural incubator (Compact NIB-10, manufactured by Iwaki Glass Co., Ltd.).
(§3) The enzymes employed herein [α-glucosidase (Baker's yeast), β-glucosidase (Almonds), α-galactosidase (E. coli), β-galactosidase (E. coli) and β-galactosidase (Bovine Liver)] were all purchased from Sigma.
(§4) The substrates (p- or o-nitrophenylglycoside) of these enzymes were all purchased from Sigma.
1) α-Glucosidase (Baker's yeast, EC 3.2.1.20) [described in H. Halvorson and L. Ellias, Biochim. Biophys. Acta, 30, 28-40 (1958)]
Into each well were introduced an aqueous solution of a sample (1 μl), a 0.66 mM solution of p-nitrophenyl α-D-glucopyranoside in a buffer (98 μl) and a (0.4 mg/ml) enzyme solution in the buffer (1 μl) to give a total volume of 100 μl. After incubating at 37° C. for 30 minutes, the reaction was ceased by adding a 1M aqueous solution of sodium carbonate (100 μl). Then the absorbance (A405) of p-nitrophenol liberated by this enzyme reaction was measured. To give the blank absorbance (Ablank), the sample (1 μl) and the substrate (99 μl) were incubated in the same manner and an aqueous solution of sodium carbonate (100 μl) was added followed by the measurement of the absorbance. […] The sample at each concentration, the blank and the control were treated each in two wells at the same time. As the buffer, a 0.1M phosphate buffer solution (pH 6.8, prepared from KH2 PO4 and K2 HPO4) was employed.

Assay [3] deals with β-Glucosidase (Almonds, EC 3.2.1.21). The assay is described as follows: β-Glucosidase enzyme inhibition assay (p-nitrophenyl β-D-glucopyranoside). As for the experimental part: as §1, §2, §3, §4
2) β-Glucosidase (Almonds, EC 3.2.1.21) [described in A. Kobayashi, Agr. Biol. Chem., 26, 203-207 (1962)]
Into each well were introduced an aqueous solution of a sample (1 μl), a 0.33 mM solution of p-nitrophenyl β-D-glucopyranoside in a buffer (98 μl) and a (0.4 mg/ml) enzyme solution in the buffer (1 μl) to give a total volume of 100 μl. After incubating at 37° C. for 45 minutes, the reaction was ceased by adding a 1M aqueous solution of sodium carbonate (100 μl). Then the absorbance (A405) of p-nitrophenol liberated by this enzyme reaction was measured. To give the blank absorbance (Ablank), the sample (1 μl) and the substrate (99 μl) were incubated in the same manner and an aqueous solution of sodium carbonate (100 μl) was added followed by the measurement of the absorbance. […] As the buffer, a 0.1M acetate buffer solution (pH 5.0, prepared from NaOAc and AcOH) was employed. The IC50 was determined in the same manner as employed in the case of α-glucosidase.

T2 sequence (P53341 whole entry): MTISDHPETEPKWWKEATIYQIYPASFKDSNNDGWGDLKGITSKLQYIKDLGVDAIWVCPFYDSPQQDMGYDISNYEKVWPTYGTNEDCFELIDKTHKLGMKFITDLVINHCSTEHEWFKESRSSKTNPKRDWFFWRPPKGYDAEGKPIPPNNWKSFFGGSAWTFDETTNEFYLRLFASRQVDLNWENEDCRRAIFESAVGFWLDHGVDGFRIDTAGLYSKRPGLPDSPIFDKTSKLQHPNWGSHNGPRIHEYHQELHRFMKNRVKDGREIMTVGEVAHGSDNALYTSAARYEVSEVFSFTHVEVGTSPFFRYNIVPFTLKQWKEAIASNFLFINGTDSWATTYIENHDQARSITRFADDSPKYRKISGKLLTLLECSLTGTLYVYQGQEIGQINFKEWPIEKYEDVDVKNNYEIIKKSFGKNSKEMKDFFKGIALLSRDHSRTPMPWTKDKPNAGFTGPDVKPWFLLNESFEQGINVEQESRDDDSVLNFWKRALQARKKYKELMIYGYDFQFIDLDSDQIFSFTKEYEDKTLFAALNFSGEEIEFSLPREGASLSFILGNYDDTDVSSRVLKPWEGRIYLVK

As to `OC[C@@]12OC(Nc3ccccc3)=N[C@@H]1[C@H](O)[C@@H](O)[C@@H]2O` [Compound 1-2L, (1S,5R,6S,7R,8S)-1-hydroxymethyl-3-phenylamino-2-oxa-4-azabicyclo[3.3.0]oct-3-ene-6,7,8-triol], the inhibition constant (Ki) in assay [1] was 51 µM. Also, the “inhibitory activity against α-glucosidase (in words)” value in assay [2] is “remarkably strong inhibitory activities”. This molecule also registered a concentration for half-maximal inhibition (IC50) in assay [3] (pH 5.0, 37° C., 45 minutes) of more than 300 µM. In addition, in assay [3] (summary of Table 1), the “inhibitory activity against β-glucosidase (in words)” value is reported as “weak inhibitory activities”.
